# Test system: patients after acute myocardial infarction
# Experiment: Angina pectoris score, total and single (frequency/attack times, duration, pain degree, dose of nitroglycerin), same clinical trial
# Format: in vivo, human
# Set-up: total angina pectoris score, Md / total angina pectoris score, Mean: scale not given here
# Settings: for attack times score, patients (%): Baseline; for distribution of total angina pectoris score: Medium, number of patients / distribution of total angina pectoris score: Medium, percentage of patients / distribution of total angina pectoris score: Mild, number of patients / distribution of total angina pectoris score: Mild, percentage of patients / distribution of total angina pectoris score: Severe, number of patients / distribution of total angina pectoris score: Severe, percentage of patients / patients with dose of nitroglycerin score 0 (%) / patients with dose of nitroglycerin score 1 (%) / patients with dose of nitroglycerin score 2 (%) / patients with dose of nitroglycerin score 4 (%) / patients with dose of nitroglycerin score 6 (%) / total angina pectoris score, Md / total angina pectoris score, Mean / change of total angina pectoris score, Md / change of total angina pectoris score, Mean / patients with change of dose of nitroglycerin score 0 (%) / patients with change of dose of nitroglycerin score 1 (%) / patients with change of dose of nitroglycerin score 2 (%) / patients with change of dose of nitroglycerin score 4 (%) / patients with change of dose of nitroglycerin score 6 (%) / patients with change of dose of nitroglycerin score −1 (%) / patients with change of dose of nitroglycerin score −2 (%) / patients with change of dose of nitroglycerin score −3 (%) / patients with change of dose of nitroglycerin score −4 (%) / patients with change of dose of nitroglycerin score −6 (%) / patients with change of dose of nitroglycerin score −5 (%): FAS
# Text: In order to better understand the present invention, a multi-center, randomized, double-blind, double-dummy and positive drug controlled trial had been conducted. 3508 patients who were in accordance with the diagnostic standards of AMI for 28 days to 2 years and differentiated as Qi deficiency and blood stagnation syndrome by TCM were studied. 0.5 g Chinese medicine composition prepared by the method of EXAMPLE 1 (Coded as QSYQ) was administrated half an hour after meal, 3 times per day. Aspirine was used as a positive drug. The patients were treated for 1 year and observed for 6 months.
# They included the overall survival time, angina pectoris score, TCM symptom score and life quality score, where angina pectoris score, TCM symptom score and life quality score were evaluated at randomization, in 1st, 3rd, 6th, 9th, 12th month after treatment and 18th month after follow-up.
# (§1) Total angina pectoris score was described on every observation period and the change of observation in comparison with baseline. T-test or Wilcoxon rank sum test were used for inter-group comparison. Grade of total score was evaluated on every observation and Wilcoxon rank sum test was used for inter-group comparison. T-test and Pairing signed rank sum test were used for analyzing the change of total score on every observation between groups in comparison with the baseline.
# (§2) Single angina pectoris score was depicted on every observation time-point and the change of observation in comparison with baseline. Wilcoxon rank sum test was used for inter-group comparison. Pairing signed rank sum test was used for analyzing the change of total score on every observation between groups in comparison with the baseline.
# as §1, with “comparison with the baseline. T-test” for “comparison with baseline. T-test”
# as §2, with “described” for “depicted”
# [1] = 1 month after treatment-baseline
# [2] = 3 months after treatment-baseline
# [3] = 6 months after treatment-baseline
# [4] = 9 months after treatment-baseline
structure (smiles),measurement,setting,value
"CC(=O)Oc1ccccc1C(=O)O [Control group, aspirine]","attack times score, patients (%)","score 1, PP",(8.95%)
same,"attack times score, patients (%)","score 2, FAS",(53.24%)
same,"attack times score, patients (%)","score 2, PP",(53.51%)
same,"attack times score, patients (%)","score 4, FAS",(9.12%)
same,"attack times score, patients (%)","score 4, PP",(9.55%)
same,"attack times score, patients (%)","score 6, FAS",(1.03%)
same,"attack times score, patients (%)","score 6, PP",(1.00%)
same,"distribution of total angina pectoris score: Medium, number of patients",1 month after treatment,484
same,"distribution of total angina pectoris score: Medium, percentage of patients",1 month after treatment,(28.24%)
same,"distribution of total angina pectoris score: Mild, number of patients",1 month after treatment,1203
same,"distribution of total angina pectoris score: Mild, percentage of patients",1 month after treatment,(70.19%)
same,"distribution of total angina pectoris score: Severe, number of patients",1 month after treatment,27
same,"distribution of total angina pectoris score: Severe, percentage of patients",1 month after treatment,(1.58%)
same,patients with dose of nitroglycerin score 0 (%),1 month after treatment,(59.78%)
same,patients with dose of nitroglycerin score 1 (%),1 month after treatment,(0.29%)
same,patients with dose of nitroglycerin score 2 (%),1 month after treatment,(28.94%)
same,patients with dose of nitroglycerin score 4 (%),1 month after treatment,(7.65%)
same,patients with dose of nitroglycerin score 6 (%),1 month after treatment,(3.34%)
same,"total angina pectoris score, Md",1 month after treatment,6.00
same,"total angina pectoris score, Mean",1 month after treatment,5.92
same,"change of total angina pectoris score, Md",[1],0.00
same,"change of total angina pectoris score, Mean",[1],−1.19
same,patients with change of dose of nitroglycerin score 0 (%),[1],(80.53%)
same,patients with change of dose of nitroglycerin score 1 (%),[1],(0.17%)
same,patients with change of dose of nitroglycerin score 2 (%),[1],(3.92%)
same,patients with change of dose of nitroglycerin score 4 (%),[1],(1.04%)
same,patients with change of dose of nitroglycerin score 6 (%),[1],(0.23%)
same,patients with change of dose of nitroglycerin score −1 (%),[1],(0.00%)
same,patients with change of dose of nitroglycerin score −2 (%),[1],(11.41%)
same,patients with change of dose of nitroglycerin score −3 (%),[1],(0.06%)
same,patients with change of dose of nitroglycerin score −4 (%),[1],(2.13%)
same,patients with change of dose of nitroglycerin score −6 (%),[1],(0.52%)
same,"distribution of total angina pectoris score: Medium, number of patients",3 months after treatment,397
same,"distribution of total angina pectoris score: Medium, percentage of patients",3 months after treatment,(23.97%)
same,"distribution of total angina pectoris score: Mild, number of patients",3 months after treatment,1241
same,"distribution of total angina pectoris score: Mild, percentage of patients",3 months after treatment,(74.94%)
same,"distribution of total angina pectoris score: Severe, number of patients",3 months after treatment,18
same,"distribution of total angina pectoris score: Severe, percentage of patients",3 months after treatment,(1.09%)
same,patients with dose of nitroglycerin score 0 (%),3 months after treatment,(61.98%)
same,patients with dose of nitroglycerin score 1 (%),3 months after treatment,(0.63%)
same,patients with dose of nitroglycerin score 2 (%),3 months after treatment,(29.58%)
same,patients with dose of nitroglycerin score 4 (%),3 months after treatment,(5.23%)
same,patients with dose of nitroglycerin score 6 (%),3 months after treatment,(2.58%)
same,"total angina pectoris score, Md",3 months after treatment,6.00
same,"total angina pectoris score, Mean",3 months after treatment,5.38
same,"change of total angina pectoris score, Md",[2],0.00
same,"change of total angina pectoris score, Mean",[2],−1.73
same,patients with change of dose of nitroglycerin score 0 (%),[2],(75.23%)
same,patients with change of dose of nitroglycerin score 1 (%),[2],(0.17%)
same,patients with change of dose of nitroglycerin score 2 (%),[2],(4.44%)
same,patients with change of dose of nitroglycerin score 4 (%),[2],(0.69%)
same,patients with change of dose of nitroglycerin score 6 (%),[2],(0.29%)
same,patients with change of dose of nitroglycerin score −1 (%),[2],(0.29%)
same,patients with change of dose of nitroglycerin score −2 (%),[2],(15.15%)
same,patients with change of dose of nitroglycerin score −4 (%),[2],(2.94%)
same,patients with change of dose of nitroglycerin score −5 (%),[2],(0.12%)
same,patients with change of dose of nitroglycerin score −6 (%),[2],(0.69%)
same,"distribution of total angina pectoris score: Medium, number of patients",6 months after treatment,309
same,"distribution of total angina pectoris score: Medium, percentage of patients",6 months after treatment,(19.43%)
same,"distribution of total angina pectoris score: Mild, number of patients",6 months after treatment,1273
same,"distribution of total angina pectoris score: Mild, percentage of patients",6 months after treatment,(80.06%)
same,"distribution of total angina pectoris score: Severe, number of patients",6 months after treatment,8
same,"distribution of total angina pectoris score: Severe, percentage of patients",6 months after treatment,(0.50%)
same,patients with dose of nitroglycerin score 0 (%),6 months after treatment,(65.38%)
same,patients with dose of nitroglycerin score 1 (%),6 months after treatment,(0.86%)
same,patients with dose of nitroglycerin score 2 (%),6 months after treatment,(28.24%)
same,patients with dose of nitroglycerin score 4 (%),6 months after treatment,(3.62%)
same,patients with dose of nitroglycerin score 6 (%),6 months after treatment,(1.89%)
same,"total angina pectoris score, Md",6 months after treatment,5.00
same,"total angina pectoris score, Mean",6 months after treatment,4.78
same,"change of total angina pectoris score, Md",[3],0.00
same,"change of total angina pectoris score, Mean",[3],−2.34
same,patients with change of dose of nitroglycerin score 0 (%),[3],(70.05%)
same,patients with change of dose of nitroglycerin score 1 (%),[3],(0.40%)
same,patients with change of dose of nitroglycerin score 2 (%),[3],(4.84%)
same,patients with change of dose of nitroglycerin score 4 (%),[3],(0.40%)
same,patients with change of dose of nitroglycerin score 6 (%),[3],(0.35%)
same,patients with change of dose of nitroglycerin score −1 (%),[3],(0.23%)
same,patients with change of dose of nitroglycerin score −2 (%),[3],(18.49%)
same,patients with change of dose of nitroglycerin score −3 (%),[3],(0.00%)
same,patients with change of dose of nitroglycerin score −4 (%),[3],(4.03%)
same,patients with change of dose of nitroglycerin score −5 (%),[3],(0.17%)
same,patients with change of dose of nitroglycerin score −6 (%),[3],(1.04%)
same,"distribution of total angina pectoris score: Medium, number of patients",9 months after treatment,244
same,"distribution of total angina pectoris score: Medium, percentage of patients",9 months after treatment,(15.97%)
same,"distribution of total angina pectoris score: Mild, number of patients",9 months after treatment,1280
same,"distribution of total angina pectoris score: Mild, percentage of patients",9 months after treatment,(83.77%)
same,"distribution of total angina pectoris score: Severe, number of patients",9 months after treatment,4
same,"distribution of total angina pectoris score: Severe, percentage of patients",9 months after treatment,(0.26%)
same,patients with dose of nitroglycerin score 0 (%),9 months after treatment,(67.11%)
same,patients with dose of nitroglycerin score 1 (%),9 months after treatment,(1.03%)
same,patients with dose of nitroglycerin score 2 (%),9 months after treatment,(27.73%)
same,patients with dose of nitroglycerin score 4 (%),9 months after treatment,(2.41%)
same,patients with dose of nitroglycerin score 6 (%),9 months after treatment,(1.72%)
same,"total angina pectoris score, Md",9 months after treatment,5.00
same,"total angina pectoris score, Mean",9 months after treatment,4.39
same,"change of total angina pectoris score, Md",[4],−1.00
same,"change of total angina pectoris score, Mean",[4],−2.72
same,patients with change of dose of nitroglycerin score 0 (%),[4],(67.45%)
same,patients with change of dose of nitroglycerin score 1 (%),[4],(0.35%)
same,patients with change of dose of nitroglycerin score 2 (%),[4],(4.84%)
same,patients with change of dose of nitroglycerin score 4 (%),[4],(0.46%)
same,patients with change of dose of nitroglycerin score 6 (%),[4],(0.35%)
same,patients with change of dose of nitroglycerin score −1 (%),[4],(0.46%)
same,patients with change of dose of nitroglycerin score −2 (%),[4],(20.16%)
same,patients with change of dose of nitroglycerin score −3 (%),[4],(0.12%)
same,patients with change of dose of nitroglycerin score −4 (%),[4],(4.26%)
same,patients with change of dose of nitroglycerin score −5 (%),[4],(0.17%)
same,patients with change of dose of nitroglycerin score −6 (%),[4],(1.38%)
same,"distribution of total angina pectoris score: Medium, number of patients",12 months after treatment,176
same,"distribution of total angina pectoris score: Medium, percentage of patients",12 months after treatment,(11.96%)
same,"distribution of total angina pectoris score: Mild, number of patients",12 months after treatment,1294
same,"distribution of total angina pectoris score: Mild, percentage of patients",12 months after treatment,(87.91%)
same,"distribution of total angina pectoris score: Severe, number of patients",12 months after treatment,2
same,"distribution of total angina pectoris score: Severe, percentage of patients",12 months after treatment,(0.14%)
same,patients with dose of nitroglycerin score 0 (%),12 months after treatment,(71.58%)
same,patients with dose of nitroglycerin score 1 (%),12 months after treatment,(1.09%)
same,patients with dose of nitroglycerin score 2 (%),12 months after treatment,(23.59%)
same,patients with dose of nitroglycerin score 4 (%),12 months after treatment,(2.07%)
same,patients with dose of nitroglycerin score 6 (%),12 months after treatment,(1.66%)
same,"total angina pectoris score, Md",12 months after treatment,0.00
same,"total angina pectoris score, Mean",12 months after treatment,3.83
